Reference: patent US20190127775A1 (priority 2016, published 2019)

How the values were obtained:
[1] = un-metabolized parent; only active after metabolic conversion into sulfanilamide; cited from earlier work
[2] = tested on: methicillin resistant Staphylococcus aureus (MRSA; ATCC # 43300); assay: Whole cell anti-MRSA growth inhibition screen (OD590) of Un-Met and Pre-Met library plates; assay type: cell-based
Procedure: Next, a copy of the library in its un-metabolized form and a copy of the library in its pre-metabolized form were created. The buffer used for library metabolism was (4×=4 times the concentration of each component in the final solution): 4× KPMEN Buffer: 200 mM KH2PO4; 4 mM K2EDTA; 20 mM glucose-6-phosphate, disodium salt (G6P); 4 mM NADPH, tetrasodium salt; pH adjusted to 7.4 with 1 M KOH. To each well in 1 set of the Reconstituted Copy Plates was added 45 μL 1.1× KEPNM Buffer to give 1 set of unmetabolized (“Un-Met”) Library Plates. […] Both sets of plates were incubated at room temperature for 24 hours with gentle rocking to provide 1 set of Un-Met Library Plates and 1 set of Pre-Met Library Plates. […]
Antibacterial activity screening was performed using methicillin resistant Staphylococcus aureus (MRSA; ATCC # 43300). […] The optical density of each well was then read at 590 nm (0D590) using a TECAN SpectraFluor Plus microtiter plate reader (Artisan Technology Group, Champaign, Ill.). These plates were also read prior to addition of bacteria to identify wells with compounds with a high OD590, so that these well could be examined manually for turbidity post bacterial growth, since a high prior OD590 would interfere with post bacterial growth OD590 measurement. […]

Compound	antibacterial activity in vitro [1]	anti-MRSA activity in the Pre-Met plates ([2]; Pre-Met plates (human liver microsomes), cutoff OD590 0.18, 24 hours 35° C.)	anti-MRSA activity in the Un-Met plates ([2]; Un-Met plates, cutoff OD590 0.15, 24 hours 35° C.)
Nc1ccc(/N=N/c2ccc(S(N)(=O)=O)cc2)c(N)c1 [protosil, prontosil]	inactive in vitro		
COc1ccc2c(c1)[C@]13CCCC[C@@H]1[C@H](C2)N(C)CC3 [dextromethorphan]		not in the Pre-Met plates	had anti-MRSA activity
